# Patent US20070148090A1, “Per (3,6-anhydro) cyclodextrin derivatives, preparation thereof and use thereof for transporting metal elements to biological targets or for decontaminating biological targets of fluids” (priority 2003, published 2007)
# Entries after “also recorded” stand apart in the source; their conditions may differ.
# How the values were obtained:
# [1] = complexation of erbium on ion-loaded thin layer chromatography plates (1/Rf); format: binding; details: Polygram Ionex 25-SA-Na plates loaded with Er^3+, developed four times in water; FIG. 4
# From the text: (§1) To evaluate the complexation, ion-loaded thin layer chromatography plates which allow rapid evaluation of the complexation of these ions by the species to be evaluated are used. In the present case, plates of Polygram Ionex 25-SA-Na type (Macherey-Nagel, ref: 80613) loaded with various counterions were used. In each test, the compound to be tested is introduced onto the plate, and if the compound complexes the ions, they will be retained on the plate. The plates are then developed four times in water, because of the small amount of migration of the cyclodextrin derivatives, and then the degree of complexation is determined through the value 1/Rf, where Rf represents the ratio: (distance covered by the cyclodextrin derivative/distance covered by the solvent).
# (§2) Measurements of degree of complexation of lead (in the form Pb^2+) and of erbium in the form (Er^3+) were carried out for the following three compounds: • the base cyclodextrin mono-2-O-carboxyméthyle-per-(3,6-anhydro)cyclomaltohexaose (designated (1) in FIG. 4); • a cyclodextrin in accordance with the invention, prepared in the context of Example 1 (denoted (2) in FIG. 4); • a cyclodextrin in accordance with the invention, prepared in the context of Example 2 (denoted (3) in FIG. 4).
# [2] = complexation of lead on ion-loaded thin layer chromatography plates (1/Rf); format: binding; details: Polygram Ionex 25-SA-Na plates loaded with Pb^2+, developed four times in water; FIG. 4
# From the text: as §1, §2
Substance,"erbium-complexation properties (degree of complexation, 1/Rf) [1]","lead-complexation properties (degree of complexation, 1/Rf) [2]"
"mono-2-O-carboxymethyl-per-(3,6-anhydro)cyclomaltohexaose [noncoupled per(3,6-anhydro)cyclodextrin, reference compound]",does not complex erbium,
"[(mono-2-O-methyl(mono-ε-amidopoly-L-Lysine)]-per-(3,6-anhydro)-α-cyclodextrin [Example 2]",particularly advantageous; also recorded: complex erbium,particularly advantageous
